How the values were obtained:
[1] = system: human Burkitt lymphoma Daudi cells; experiment: Cytotoxic effects on human Burkitt lymphoma Daudi cells (MTT assay); type: cell-based
Experimental: Human Burkitt Lymphoma Daudi cells (1×10^6 cells/ml) were treated with different concentrations of Merodantoin. After overnight incubation at 37° C., the tumor cells kill was determined by MTT assay.
Human Burkitt Lymphoma Daudi cells (1×10^6 cells/ml) were treated with different concentrations of Merocil. After overnight incubation at 37° C., the tumor cells kill was determined by MTT assay.
Each cell type (1×10^6 cells/ml; in triplicate) was treated with indicated concentrations of Merocil or Merodantoin. After overnight (20 hr.) or 5 day incubation periods, the cell viability was determined by MTT assay and calculated as a percentage of untreated controls.

[2] = system: L1210 mouse leukemia cells; experiment: Combined effect on L1210 mouse leukemia cells (MTT assay); details: MC = 12.5 μg/ml; MD = 25 μg/ml; MZ = 25 μg/ml; overnight
Experimental: The biological activities of the photooxidation products of MC 540 were determined. Preactivated MC 540 is abbreviated as pMC 540. Assays of antitumor activities of the products were carried out according to published standard methods.
Mouse leukemia L1210 cells (1 × 10^6 cells/ml) were treated wit
different combinations of the indicated compounds (isolated from
preactivated merocyanine 540). After overnight incubation the cell kill

SMILES: CC1(O)Oc2ccccc2N1CCCS(=O)(=O)O (centres unmarked) [Meroxazole, 2-Hydroxy-2-methyl-3-[3'-sulfopropyl]-benzoxazolin]
- cytotoxicity at 25 µg/mL ([1]; Homo sapiens, Daudi, 25 μg/ml, representative experiment, read-out: % Cell Kill): 0%
- cytotoxicity at 50 µg/mL ([1]; Homo sapiens, Daudi, 50 μg/ml, representative experiment, read-out: % Cell Kill): 0%
- cytotoxicity at 75 µg/mL ([1]; Homo sapiens, Daudi, 75 μg/ml, representative experiment, read-out: % Cell Kill): 0%
- cytotoxicity at 100 µg/mL ([1]; Homo sapiens, Daudi, 100 μg/ml, representative experiment, read-out: % Cell Kill): 0%
- cytotoxicity at 125 µg/mL ([1]; Homo sapiens, Daudi, 125 μg/ml, representative experiment, read-out: % Cell Kill): 0%
- cytotoxicity at 500 µg/mL ([1]; Homo sapiens, Daudi, 500 μg/ml, representative experiment, read-out: % Cell Kill): 32%
- cytotoxicity to Daudi cells (conclusion) ([1]; doses of Table 7): not cytotoxic
- % Cell Kill [2]: Zero

Reference: patent US5312919A, “Photooxidation products and derivatives thereof of merocyanine-540, their preparation and uses” (priority 1992, dated 1994)
